Source: US20240122939A1, “THERAPIES FOR THE TREATMENT OF DISEASES AND DISORDERS ASSOCIATED WITH ABNORMAL EXPRESSION OF CDKL5 GENE” (THE REGENTS OF THE UNIVERSITY OF CALIFORNIA, priority 2021, published 2024)

Tests used:
[1] = system: CDD spheroids (cortical neurons and astrocytes derived from human iPSCs); assay: HT calcium oscillation assay in CDD spheroids (high throughput screening, Scalar Perturbation and Parameter Recovery analysis); assay type: cell-based; conditions: for SP ranking (Scalar Perturbation): smaller SP = closer to control; for EC50: Homo sapiens, iPSC, six concentrations 0.0003 to 1 μM, nonlinear regression fit, n=4 spheroids per concentration, read-out: EC50 (dose-response of Parameter Recovery percentage)
Description: CDD High Throughput Screening (HTS) platform development. An HTS platform for CDD was developed. Briefly, the HTS system relies on spheroids derived from human iPSCs that comprise a balanced culture of cortical neurons and astrocytes. These spheroids display quantifiable, robust and uniform spontaneous calcium oscillations which correlated with synchronous neuronal activity. The CDD HTS platform uses cells derived from CDD1 and Controll lines.
Chemical library and drug treatment. The compound library used in this study comprises a unique collection of 1112 compounds with biological activity used for neurologic research and associated assays; of which two-thirds are FDA-approved drugs (SelleckChem, Houston, TX, USA). Three-week-old CDD spheroids received chronic treatment three-times per week, during three weeks. All compounds were tested at 1 μM in three technical replicates; vehicle controls (DMSO or water) were included in multiple replicates. The dose-response assay comprehended six concentrations ranging from 0.0003 to 1 μM, in four technical replicates.
HT Calcium oscillation assay. To assess the intracellular calcium oscillations in CDD and control cortical spheroids, cells were incubated with the FLIPR Calcium 6 Kit (Molecular Devices LLC, San Jose, CA, USA). Briefly, cells were pre-loaded with Calcium 6 Dye for 2 h prior to the recording. The dye interacts with intracellular calcium and changes in fluorescence occur according to increased or decreased calcium concentration. The peaks observed correlate with synchronous neural activity in the spheroids. The kinetics of intracellular calcium oscillations was determined using the FLIPR Tetra High-Throughput Cellular Screening System (Molecular Devices LLC): the fluorescence intensity was set at 515-575 nm following excitation at 470-495 nm for 10 min at a frequency of 3 Hz; the exposure time per read was 0.4 s, the gain was set to 30, and the excitation intensity was set to 40%. The instrument temperature was kept at 37° C.
HT screening analysis. A multiparametric analysis of representative descriptors of the intracellular calcium oscillation was performed. The features used include: 1. Peak count; 2. Average (Avg) Peak Height (Amplitude); 3. Peak Height standard deviation (s.d.); 4. Avg Peak Width, 5. Peak Width s.d.; 6. Avg Peak Spacing; 7. Peak Spacing s.d.; 8. Avg Peak Rise Time; 9. Peak Rise Time s.d.; 10. Avg Peak Decay Time; 11. Peak Decay Time s.d.; 12. Class 1 Peak Count; 13. Class 2 Peak Cound; 14. Class 3 Peak Count; 15. Singular Peak Count; 16. Irregular Peak Count, and 17. Subpeak Count. For peak classification, Class 1 Peak display 100-66% of max peak height, while Class 2 and Class 3, 66-33% and 33-15%, respectively. To determine the Scalar Perturbation, the data was normalized by dividing raw parameters by the median values of controls from the same plate. Each parameter was standardized by z-score of normalized and log-transformed control values. Next, the Euclidean norm between selected parameters was calculated and averaged the Scalar Perturbation score among replicates. In the Parameter Recovery, max/min boundaries from vehicle Control were determined from corresponding plate. For each replicate, we summed the number of parameter found to be within the max/min boundaries of the Control. Next, for each replicate we divided the sum of the recovered parameter by the total number of parameters and established the percentage of parameters recovered to the Control boundaries and, averaged Parameter Recovery percentages between compound replicates.
Next, a unique library of 1112 neuronal signaling compounds was screened by chronically treating 3-week-old CDD spheroids in triplicate at 1 μM for 3 weeks (FIG. 5D; FIG. 10). The calcium peaks' baseline features were determined solely in the presence of each vehicle (DMSO or water) to avoid any confounding effect on the oscillatory activity (FIG. 5E and FIG. 10A-D). […]

CDD spheroids = assay: HT cell viability (CellTiter Glo 3D Cell Viability Assay); assay type: cell-based, human; conditions: 1 μM, 3 weeks treatment, CDD spheroids at 6 weeks of differentiation
Method: HT cell viability. To determine any cytotoxic effect of the drug treatment on the neural culture, the CellTiter Glo 3D Cell Viability Assay (Promega, Madison, WI, USA) was performed according to the manufacturer's instructions. Briefly, following the intracellular calcium oscillation recording, the spheroids were extensively washed with PBS for removal of the calcium dye. Next, cells were incubated with CellTiter Glo Reagent for 30 min at room temperature and the number of viable cells was estimated based on the amount of ATP present in the culture. The luminescent signal was captured using a PHERAstar FSX Microplate Reader (BMG Labtech, Ortenberg, Germany).
Next, a unique library of 1112 neuronal signaling compounds was screened by chronically treating 3-week-old CDD spheroids in triplicate at 1 μM for 3 weeks (FIG. 5D; FIG. 10). The calcium peaks' baseline features were determined solely in the presence of each vehicle (DMSO or water) to avoid any confounding effect on the oscillatory activity (FIG. 5E and FIG. 10A-D). Similarly, the result from each compound was normalized against its vehicle control (DMSO or water). To detect potential toxic effects of specific drugs, spheroid size and cell viability were monitored (FIG. 5F-G).

[2] = system: Cdkl5 knockout mouse neurons; conditions: cited from earlier work
CDD spheres = assay: Cellular migration after drug treatment (outward radial migration from plated spheres); assay type: cell-based, human; conditions: 1 μM, spheres treated for 3 weeks, migration evaluated 8 days after plating
Method: Cellular migration. Three-week old spheres were treated for 3 additional weeks with 1 μM of selected compounds. Cellular migration was evaluated 8 days after spheres were plated onto poly-L-ornithine/laminin-coated plates. The outward radial migration was measured using NeuronJ plugin on the Fiji platform. Next, these lead compounds were investigated for their ability to ameliorate CDD cellular phenotype. Following a similar pharmacological strategy, spheres were treated for 3 weeks, and cellular migration was evaluated after plating.

[3] = 1112 compounds screened at 1 μM, chronic treatment for 3 weeks, 3-week-old CDD spheroids

SMILES	PR ranking (Parameter Recovery) ([1]; 1112 compounds screened at 1 μM, chronic treatment for 3 weeks, 3-week-old CDD spheroids, higher PR = closer to control)	SP ranking (Scalar Perturbation) [1, 3]	effect on cell viability (CDD spheroids)	restoration of CDKL5-dependent synaptic defects [2]	EC50 [1] [nM]	rescue of outward radial cellular migration defects in CDD (CDD spheres)
COc1ccc2c(c1)[nH]c1c(C)nccc12 [Harmine]	second	first	excluded from the list of top candidates due to its effect on cell survival	restore CDKL5-dependent synaptic defects		
COc1cc2c(cc1OC)CC(=O)N(CCCN(C)C[C@H]1Cc3cc(OC)c(OC)cc31)CC2 [Ivabradine]		10	no effect on cell viability		41	able to rescue outward radial cellular migration defects
O=C(O[C@H]1CN2CCC1CC2)N1CCc2ccccc2[C@@H]1c1ccccc1 [Solifenacin]		28	no effect on cell viability			able to rescue outward radial cellular migration defects
N#Cc1ccc2[nH]c(O)c(-c3ccc(CN4CCOCC4)cn3)c2c1 [AZD1080]		12	no effect on cell viability			able to rescue outward radial cellular migration defects
C[C@H](NC(=O)CCC(F)(F)F)C(=O)N[C@@H]1C(=O)N(CCO)c2ncccc2-c2ccccc21 [Crenigacestat]		5	no effect on cell viability		883	able to rescue outward radial cellular migration defects
